Data reported in article PMC7058083, “Structural basis of ligand binding modes at the human formyl peptide receptor 2” (Nature Communications, 2020).
Changes are numbered by the printed parent chain. Residues, ends and D or L forms follow the SMILES beside them. *: point of attachment. For = O=C*

Key:
Test in all cases: Competition binding of fMLFK with WK(FITC)YMVm, flow cytometry on HEK293F cells
[1] = target: T1, wild-type (WT) and mutant FPR2 (Homo sapiens, UniProt P25090, F292A); details: FPR2 F292A; mean ± s.e.m., n=3; SEM
T1 construct: expressed in transfected cells; host or cells: HEK293F
T1 sequence (P25090 1-351 F292A): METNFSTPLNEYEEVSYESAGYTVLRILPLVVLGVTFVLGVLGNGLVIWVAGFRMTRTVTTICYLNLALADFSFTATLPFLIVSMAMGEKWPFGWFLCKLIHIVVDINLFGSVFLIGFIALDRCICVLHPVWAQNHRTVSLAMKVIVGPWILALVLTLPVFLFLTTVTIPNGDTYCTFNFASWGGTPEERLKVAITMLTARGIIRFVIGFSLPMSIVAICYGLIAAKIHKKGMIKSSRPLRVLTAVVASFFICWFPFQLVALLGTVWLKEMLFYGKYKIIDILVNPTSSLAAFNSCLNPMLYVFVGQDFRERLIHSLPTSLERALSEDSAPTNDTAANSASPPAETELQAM
Procedure: (§1) Flag-tagged wild-type and mutant FPR2s were cloned into the pTT5 vector and expressed in HEK293F cells. The cells were harvested, and washed with Hanks’ Balanced Salt Solution (HBSS) buffer supplemented with 0.5% bovine serum albumin and 20 mM HEPES, pH 7.4. The cells were then resuspended in the same buffer to the final concentration of 1 × 10^6 cells per ml. The cell-surface expression was measured as mentioned above. […] Mean fluorescent intensity of each well was then read by a FCM (flow cytometry) reader (Millipore). […] For competitive binding of fMLFK, cells were plated in 96-well plates (100,000 cells per well), and incubated with WK(FITC)YMVm at 4 °C for 1 h. The following concentrations of WK(FITC)YMVm were used: 10 nM (wild type, L81^2.60F, E89G, and V105^3.32A), 30 nM (D281^7.32G), 40 nM (H102^3.29F, V160^4.60A, L268^ECL3A, N285^7.36A, and F292^7.43A), and 100 nM (L164^4.64A and T177A). Then increasing concentrations of fMLFK (100 nM–1 mM) were added, and incubated for another 1 h on ice. Mean fluorescent intensity values were measured by flow cytometry. Data were analyzed using Prism 7.0.

[2] = target: T2, wild-type (WT) and mutant FPR2 (Homo sapiens, UniProt P25090, L268A); details: FPR2 L268A; mean ± s.e.m., n=3; SEM
T2 construct: expressed in transfected cells; host or cells: HEK293F
T2 sequence (P25090 1-351 L268A): T1 sequence (P25090 1-351 F292A) with L268A, A292F
Procedure: as §1

[3] = target: T3, wild-type (WT) and mutant FPR2 (Homo sapiens, UniProt P25090, L81F); details: FPR2 L81F; mean ± s.e.m., n=4; SEM
T3 construct: expressed in transfected cells; host or cells: HEK293F
T3 sequence (P25090 1-351 L81F): T1 sequence (P25090 1-351 F292A) with L81F, A292F
Procedure: as §1

[4] = target: T4, wild-type (WT) and mutant FPR2 (Homo sapiens, UniProt P25090, V105A); details: FPR2 V105A; mean ± s.e.m., n=3; SEM
T4 construct: expressed in transfected cells; host or cells: HEK293F
T4 sequence (P25090 1-351 V105A): T1 sequence (P25090 1-351 F292A) with V105A, A292F
Procedure: as §1

[5] = target: T5, wild-type (WT) and mutant FPR2 (Homo sapiens, UniProt P25090, V160A); details: FPR2 V160A; mean ± s.e.m., n=3; SEM
T5 construct: expressed in transfected cells; host or cells: HEK293F
T5 sequence (P25090 1-351 V160A): T1 sequence (P25090 1-351 F292A) with V160A, A292F
Procedure: as §1

pKi, competition binding [1]: 4.54 ± 0.11 | pKi, competition binding [2]: 4.42 ± 0.15 | pKi, competition binding [3]: 3.97 ± 0.27 | pKi, competition binding [4]: 4.56 ± 0.21 | pKi, competition binding [5]: 4.16 ± 0.14
Compound: CSCC[C@H](NC=O)C(=O)N[C@@H](CC(C)C)C(=O)N[C@@H](Cc1ccccc1)C(=O)N[C@@H](CCCCN)C(=O)O [fMLFK] (For-MLFK-OH)
